Test results published in patent US9227995B2, “Peptides” (DRUG DISCOVERY LABORATORY AS, priority 2010, dated 2016).

Experiment: aqueous solubility of the peptide
Format: physicochemical
Settings: water; stated as significantly higher compared to acyclic 21

## COC(=O)C(C)(C)NC(=O)[C@@H]1COCc2cn(nn2)CCC[C@H](NC(=O)C(C)(C)NC(=O)C(C)(C)NC(=O)C(C)(C)NC(=O)OC(C)(C)C)C(=O)NC(C)(C)C(=O)NC(C)(C)C(=O)N1 [compound 23, Methyl 2-methyl-2-((5S,14S)-8,8,11,11-tetramethyl-5-(2,2,6,6,9,9,12,12-octamethyl-4,7,10-trioxo-3-oxa-5,8,11-triazamidecanamido)-6,9,12-trioxo-16-oxa-1,7,10,13,19,20-hexaazabicyclo[16.2.1]henicosa-18 (21),19-dienecarboxamido)propanoate]
  solubility: > 1000 µM
